Source: US20250312327A1, “COMPOSITION FOR COMBINATION THERAPY, COMPRISING 2,3,5-SUBSTITUTED THIOPHENE COMPOUND” (PHAROS IBIO CO., LTD, priority 2021, published 2025)
Where two headings read alike, the source gives them in different places.

Assays:
Format in all cases: cell-based
HL-60 leukemia cell line [1] = assay: CellTiter-Glo assay, drug administered alone; settings: Homo sapiens
U937 leukemia cell line [2] = assay: CellTiter-Glo assay, co-administration of PHI-101 and anticancer drug; settings: PHI-101 at the minimum concentration, 5-azacytidine co-administration test
Method: (§1) Specifically, in the first and second tests, a 10-fold diluted solution was prepared by dissolving […] of solvent. 500 μL of the solution was serially diluted ½, an 8E-tube was filled with 500 μL of each dilution, and 90 μL of each cell line was dispensed into each well of a 96-well plate. Thereafter, 10 μL of each cell line was dispensed using JANUS and pretreated for 30 minutes under CO2. […] Next, the cells were incubated for 72 hours under CO2, Celltiter-Glo assay was performed and then IC50 was calculated.
(§2) In the third and fourth tests, a 10-fold diluted solution was prepared by dissolving 5 μL of 50 mM PHI-101 in 495 μL of solvent. 250 μL of the solution was serially diluted ½, an 8E-tube was filled with 250 μL of each dilution, and 60 μL of each cell line was dispensed into each well of a 96-well plate. Thereafter, 10 μL of each cell line was dispensed using JANUS and pretreated for 30 minutes under CO2. […] Next, the cells were incubated for 72 hours under CO2, Celltiter-Glo assay was performed and then IC50 was calculated.
(§3) Specifically, in the first and second tests, for BDCM, HL-60, THP-1, and U937 cell lines, a 10-fold diluted solution was prepared by dissolving 5 μL of 50 mM PHI-101 in 495 μL of solvent. […] Next, the cells were incubated for 72 hours under CO2, Celltiter-Glo assay was performed and then IC50 was calculated.

HL-60 leukemia cell line [3] = assay: as above; settings: PHI-101 at the minimum concentration, 5-azacytidine co-administration test
Method: as §1, §2, §3

THP-1 leukemia cell line [4] = assay: CellTiter-Glo assay, drug administered alone; settings: Homo sapiens
[5] = tested on: MV4-11 leukemia cell line; assay: CellTiter-Glo assay, drug administered alone; settings: Homo sapiens, PHI-101 administered alone, Table 7
BDCM leukemia cell line [6] = assay: CellTiter-Glo assay, drug administered alone
[7] = tested on: MolM13 leukemia cell line; assay: CellTiter-Glo assay, drug administered alone; settings: Homo sapiens
Method: (§4) The first and second tests were performed in triplicate on the above cell lines while reducing the concentration of venetoclax by half each time from 100 μM, and the third test was performed in triplicate on the BDCM cell line while reducing the concentration of venetoclax by half each time from 100 μM, and performed in triplicate on HL-60, MolM13, MolM14, and MV4-11 cell lines while reducing the concentration of venetoclax by half each time from 2.5 μM. The fourth test was performed in triplicate on HL-60, MolM13, MolM14, and MV4-11 cell lines while reducing the concentration by half each time from 2.5 μM.
(§5) Specifically, in the first and second tests, a 10-fold diluted solution was prepared by dissolving 50 μL of 10 mM venetoclax in 450 μL of solvent. 250 μL of the solution was serially diluted ½, an 8E-tube was filled with 250 μL of each dilution, and 80 μL of each cell line was dispensed into each well of a 96-well plate. Thereafter, 10 μL of each cell line was dispensed using JANUS and incubated for 72 hours under CO2. Celltiter-Glo assay was performed and then IC50 was calculated.
(§6) In the third test, for the BCDM cell line, a 10-fold diluted solution was prepared by dissolving 15 μL of 10 mM venetoclax in 135 μL of solvent. 100 μL of the solution was serially diluted ½, an 8E-tube was filled with 100 μL of each dilution, and the cell line was dispensed into a 96-well plate. Thereafter, 25 μL of the cell line was dispensed using JANUS and incubated for 72 hours under CO2. Celltiter-Glo assay was performed and then IC50 was calculated. Meanwhile, for the HL-60, MolM13, MolM14, and MV4-11 cell lines, a 10-fold diluted solution was prepared by dissolving […] of solvent. 200 μL of the solution was serially diluted ½, an 8E-tube was filled with 200 μL of each dilution, and each of the cell lines was dispensed into a 96-well plate. Thereafter, 60 μL of each cell line was dispensed using JANUS and incubated for 72 hours under CO2. Celltiter-Glo assay was performed and then IC50 was calculated.
(§7) The fourth test was performed on HL-60, MolM13, MolM14, and MV4-11 cell lines in the same manner as the third test.
(§8) The first and second tests were performed in triplicate on the above cell lines while reducing the concentration of 5-azacytidine by half each time from 100 μM. Specifically, in the first and second tests, a 10-fold diluted solution was prepared by dissolving 15 μL of 20 mM 5-azacytidine in 285 μL of solvent. 250 μL of the solution was serially diluted ½, an 8E-tube was filled with 250 μL of each dilution, and 80 μL of each cell line (3,000 cells) was dispensed into each well of a 96-well plate. Thereafter, 10 μL of each cell line was dispensed using JANUS and incubated for 72 hours under CO2. Celltiter-Glo assay was performed and then IC50 was calculated.
as §8, with “cytarabine” for “5-azacytidine”, “50,000” for “100”, “10” for “15”, “50” for “20”, “490” for “285”

U937 leukemia cell line [8] = assay: CellTiter-Glo assay, drug administered alone; settings: Homo sapiens
[9] = tested on: MolM14 leukemia cell line; assay: CellTiter-Glo assay, drug administered alone; settings: Homo sapiens, MOLM-14, PHI-101 administered alone
BDCM leukemia cell line [10] = assay: CellTiter-Glo assay, drug administered alone; settings: 72 h, venetoclax alone
Method: as §4, §5, §6, §8
as §8, with “cytarabine” for “5-azacytidine”, “50,000” for “100”, “10” for “15”, “50” for “20”, “490” for “285”

[11] = tested on: MolM14 leukemia cell line; assay: CellTiter-Glo assay, drug administered alone; settings: Homo sapiens
Method: as §4, §5, §6, §7, §8
as §8, with “cytarabine” for “5-azacytidine”, “50,000” for “100”, “10” for “15”, “50” for “20”, “490” for “285”

[12] = tested on: MV4-11 leukemia cell line; assay: CellTiter-Glo assay, drug administered alone; settings: Homo sapiens
Method: as §4, §5, §6, §7, §8
as §8, with “cytarabine” for “5-azacytidine”, “50,000” for “100”, “10” for “15”, “50” for “20”, “490” for “285”

HL-60 leukemia cell line [13] = assay: CellTiter-Glo assay, drug administered alone; settings: Homo sapiens; remark: listed apart in the source
Method: as §4, §5, §6, §7, §8
as §8, with “cytarabine” for “5-azacytidine”, “50,000” for “100”, “10” for “15”, “50” for “20”, “490” for “285”

THP-1 leukemia cell line [14] = assay: CellTiter-Glo assay, drug administered alone; settings: Homo sapiens, THP-1, 72 h, venetoclax alone
Method: as §4, §5, §8
as §8, with “cytarabine” for “5-azacytidine”, “50,000” for “100”, “10” for “15”, “50” for “20”, “490” for “285”

U937 leukemia cell line [15] = assay: CellTiter-Glo assay, drug administered alone; settings: Homo sapiens, U-937, 72 h, venetoclax alone
Method: as §4, §5, §8
as §8, with “cytarabine” for “5-azacytidine”, “50,000” for “100”, “10” for “15”, “50” for “20”, “490” for “285”

[16] = venetoclax administered alone, Table 7, read-out: IC50 Venetoclax

Compound: NC(=O)Nc1cc(C#Cc2cccc(F)c2)sc1C(=O)N[C@H]1CCCNC1 [PHI-101, (S)-5-((3-fluorophenyl)ethynyl)-N-(piperidin-3-yl)-3-ureido-thiophene-2-carboxamide]
- IC50 (HL-60 leukemia cell line [1]; HL-60, PHI-101 administered alone, Table 7, read-out: IC50 PHI-101): 2080 nM
- IC50 (HL-60 leukemia cell line [1]; HL-60, PHI-101 administered alone, Table 10, read-out: IC50 PHI-101): 2200 nM
- IC50 (HL-60 leukemia cell line [1]; HL-60, PHI-101 administered alone, Table 13, read-out: IC50 PHI-101): 1100 nM
- inhibitory activity (U937 leukemia cell line [2]): ≤ 50%
- inhibitory activity (HL-60 leukemia cell line [3]): ≤ 50%
- IC50 (THP-1 leukemia cell line [4]; THP-1, PHI-101 administered alone, Table 7, read-out: IC50 PHI-101): 1530 nM
- IC50 (THP-1 leukemia cell line [4]; THP-1, PHI-101 administered alone, Table 10, read-out: IC50 PHI-101): 735 nM
- IC50 (THP-1 leukemia cell line [4]; THP-1, PHI-101 administered alone, Table 13, read-out: IC50 PHI-101): 735 nM
- IC50 [5]: 1 nM
- IC50 (BDCM leukemia cell line [6]; PHI-101 administered alone, Table 7, read-out: IC50 PHI-101): 950 nM
- IC50 (BDCM leukemia cell line [6]; PHI-101 administered alone, Table 10, read-out: IC50 PHI-101): 230 nM
- IC50 (BDCM leukemia cell line [6]; PHI-101 administered alone, Table 13, read-out: IC50 PHI-101): 230 nM
- IC50 ([7]; PHI-101 administered alone, MolM 13, Table 7, read-out: IC50 PHI-101): 1 nM
- IC50 (U937 leukemia cell line [8]; U-937, PHI-101 administered alone, Table 7, read-out: IC50 PHI-101): 1250 nM
- IC50 (U937 leukemia cell line [8]; U-937, PHI-101 administered alone, Table 10, read-out: IC50 PHI-101): 3400 nM
- IC50 (U937 leukemia cell line [8]; U-937, PHI-101 administered alone, Table 13, read-out: IC50 PHI-101): 850 nM
- IC50 ([9]; Table 7): 8 nM
- IC50 ([9]; Table 10): 8 nM
- IC50 ([9]; Table 13): 4 nM

Compound: CC1(C)CCC(CN2CCN(c3ccc(C(=O)NS(=O)(=O)c4ccc(NCC5CCOCC5)c([N+](=O)[O-])c4)c(Oc4cnc5[nH]ccc5c4)c3)CC2)=C(c2ccc(Cl)cc2)C1 [Venetoclax]
- IC50 (HL-60 leukemia cell line [1]; HL-60, venetoclax administered alone, Table 7, read-out: IC50 Venetoclax): 275 nM
- IC50 (BDCM leukemia cell line [10]; read-out: IC50 First test): 12200 nM
- IC50 (BDCM leukemia cell line [10]; read-out: IC50 Second test): 9860 nM
- IC50 (BDCM leukemia cell line [10]; read-out: IC50 Third test): 12800 nM
- IC50 (THP-1 leukemia cell line [4]; THP-1, venetoclax administered alone, Table 7, read-out: IC50 Venetoclax): 12500 nM
- IC50 (BDCM leukemia cell line [6]; [16]): 11000 nM
- IC50 ([11]; MOLM-14, 72 h, venetoclax alone, MolM14, 72 hours, read-out: IC50 First test): 172 nM
- IC50 ([11]; MOLM-14, 72 h, venetoclax alone, MolM14, 72 hours, read-out: IC50 Fourth test): 219 nM
- IC50 ([11]; MOLM-14, 72 h, venetoclax alone, MolM14, 72 hours, read-out: IC50 Second test): 415 nM
- IC50 ([11]; MOLM-14, 72 h, venetoclax alone, MolM14, 72 hours, read-out: IC50 Third test): 147 nM
- IC50 ([11]; MOLM-14, venetoclax administered alone, MolM 14, Table 7, read-out: IC50 Venetoclax): 283 nM
- IC50 ([11]; MOLM-14, venetoclax alone, MolM14, read-out: IC50): ≤ 1000 nM
- IC50 ([7]; MOLM-13, venetoclax alone, MolM13, 72 hours, read-out: IC50 First test): 1.8 nM
- IC50 ([7]; MOLM-13, venetoclax alone, MolM13, 72 hours, read-out: IC50 Fourth test): 10.3 nM
- IC50 ([7]; MOLM-13, venetoclax alone, MolM13, 72 hours, read-out: IC50 Second test): 12.5 nM
- IC50 ([7]; MOLM-13, venetoclax alone, MolM13, 72 hours, read-out: IC50 Third test): 8.6 nM
- IC50 ([7]; MOLM-13, venetoclax alone, MolM13, read-out: IC50): ≤ 1000 nM
- IC50 ([7]; venetoclax administered alone, MolM 13, Table 7, read-out: IC50 Venetoclax): 14.6 nM
- IC50 [12, 16]: 13.7 nM
- IC50 ([12]; venetoclax alone, 72 hours, read-out: IC50 First test): 6.8 nM
- IC50 ([12]; venetoclax alone, 72 hours, read-out: IC50 Fourth test): 14.1 nM
- IC50 ([12]; venetoclax alone, 72 hours, read-out: IC50 Second test): 8.7 nM
- IC50 ([12]; venetoclax alone, 72 hours, read-out: IC50 Third test): 21.9 nM
- IC50 ([12]; venetoclax alone, read-out: IC50): ≤ 1000 nM
- IC50 (HL-60 leukemia cell line [13]; HL-60, 72 h, venetoclax alone, 72 hours, read-out: IC50 First test): 353 nM
- IC50 (HL-60 leukemia cell line [13]; HL-60, 72 h, venetoclax alone, 72 hours, read-out: IC50 Fourth test): 276 nM
- IC50 (HL-60 leukemia cell line [13]; HL-60, 72 h, venetoclax alone, 72 hours, read-out: IC50 Second test): 210 nM
- IC50 (HL-60 leukemia cell line [13]; HL-60, 72 h, venetoclax alone, 72 hours, read-out: IC50 Third test): 283 nM
- IC50 (HL-60 leukemia cell line [13]; HL-60, venetoclax alone, read-out: IC50): ≤ 1000 nM
- IC50 (U937 leukemia cell line [8]; U-937, venetoclax administered alone, Table 7, read-out: IC50 Venetoclax): 7800 nM
- IC50 (THP-1 leukemia cell line [14]; read-out: IC50 First test): 12500 nM
- IC50 (THP-1 leukemia cell line [14]; read-out: IC50 Second test): 12500 nM
- IC50 (U937 leukemia cell line [15]; read-out: IC50 First test): 7310 nM
- IC50 (U937 leukemia cell line [15]; read-out: IC50 Second test): 8320 nM
